Results from patent publication US20140309296A1, “BUDIODARONE FORMULATIONS” (Armetheon, Inc., priority 2013, published 2014).
Values joined by “and” are separate entries in the source; they are usually repeats but may differ in a detail not shown here. Equal entries are not always repeated. Where two headings read alike, the source gives them in different places.

Tests used:
[1] = Solubility of budiodarone tartrate in different co-solvents (Example 5); format: physicochemical; details: co-solvent 3.6% to 14.4% in water, 25 mg/ml, 24 hours
Experimental: Co-solvents that are routinely used in injectable pharmaceutical preparations were studied. These were dimethylacetamide (DMA), dimethylsulfoxide (DMSO), ethanol (EtOH), and N-methylpyrrolidone (NMP). Samples were prepared as described in Table 4 below.
Samples were prepared by mixing all three components together as in previous examples, using a vortexer at maximum speed for 3×10 sec. Samples were then left in the dark for 24 hours and analyzed by HPLC following centrifugation to precipitate any insoluble material.

[2] = Budiodarone concentration attainable in hyperconcentrated solutions (Examples 16-18); format: physicochemical
Experimental: The benzyl alcohol/budiodarone tartrate solution is viscous and therefore direct measurement of the budiodarone concentration is difficult. A better way to measure budiodarone concentration in the solution of benzyl alcohol and budiodarone oil or in a hyperconcentrated solution is by using an indirect method. In this example, the volume of the benzyl alcohol/budiodarone mixture was measured, which in turn allowed for the calculation of an accurate budiodarone concentration.
In each of five vials of accurately known volume, budiodarone tartrate (250 mg) and benzyl alcohol (91 μl) were mixed in order to make a 3/1 mixture (mol/mol). Then the solution was mixed thoroughly in order to make a clear solution. This was aided with the help of warming to 50° C. for 3 minutes in order to reduce the viscosity of the mixture. The weight of the vial containing the 3:1 mixture of benzyl alcohol/budiodarone was then recorded. Vial number 1 was filled with silicon oil of density d=0.964 and weighed again. The difference in weight provided the weight of the silicon oil added. This, divided by the density of the silicon oil provided the volume of silicon oil necessary to fill the vial. The difference with the known volume of the vial represents the volume of the benzyl alcohol/budiodarone mixture. To Vial numbers 2, 3, 4, and 5 was added 50, 100, 200, and 400 μl of water, respectively. The contents of the vials were then thoroughly mixed in order to get hyperconcentrated solutions of different volumes and different budiodarone concentrations. The volumes of these hyperconcentrations using silicon oil were measured as described above.
The same experiment as Example 16 was replicated, using mixtures of 5/1 ratio (250 mg of budiodarone tartrate and 152 μl of benzyl alcohol) and various volumes of water added. Using the same procedure as Example 16, a maximum calculated budiodarone concentration of 737 mg/ml and a maximum benzyl alcohol concentration of 45% (v/v) were found.
Similarly, the experiment in Example 16 was replicated, using a 1/1 mixture (250 mg of budiodarone tartrate and 30 μl of benzyl alcohol). A maximum calculated budiodarone concentration of 1,136 mg/ml and a maximum benzyl alcohol concentration of 13.6% (v/v) were found.

[3] = Solubility of budiodarone tartrate and benzyl alcohol in solvents of different ionic strengths (Example 4); format: physicochemical; details: 5/1 benzyl alcohol, nominal 25 mg/ml, 1 hour
Experimental: To find out, five vials, each one containing budiodarone tartrate (200 mg, 0.234 mmoles) and benzyl alcohol (122 μl, 1.173 mmoles) were prepared. The molar ratio was therefore 5/1. To each of these vials was added 4 ml of water and the vials were vortexed, resulting in clear solutions containing 50 mg/ml of budiodarone tartrate and benzyl alcohol (molar ratio of 5/1). Then, 4 ml of one of the following solvents was added: 30 mM acetate buffer pH 5.2, 30 mM phosphate buffer saline pH 7.4, 30 mM Tris.HCl buffer pH 7.5, 1.8% sodium chloride (saline solution), and 10% dextrose solution (D10W) resulting in 15 mM concentration of buffer, 0.9% concentration of sodium chloride, and 5% concentration of dextrose (D5W), respectively.
Upon addition of an ionic solvent, all the samples except the D5W sample became turbid. The vials were then vortexed at high speed (3×10 sec) and left to stand for 1 hour. Then they were vortexed again (3×10 sec) and a 1-ml aliquot from each vial was centrifuged at 13,000 rpm for 10 min. A small aliquot of the clear supernatant was diluted 25-fold with methanol and analyzed by HPLC (Conditions 3). The remaining concentrations of budiodarone in the samples were as follows: […]

[4] = cited from earlier work
[5] = tested on: patients with paroxysmal atrial fibrillation (PAF); details: cited from earlier work
[6] = cited from earlier work; remark: listed apart in the source
[7] = 600 mg BID, Treatment Months 1-3, ITT
[8] = 600 mg BID, Treatment Months 1-3, mITT

CC[C@H](C)OC(=O)Cc1oc2ccccc2c1C(=O)c1cc(I)c(OCCN(CC)CC)c(I)c1 [budiodarone, (1S)-1-methylpropyl 2-(3-{4-[2-(diethylamino)ethoxy]-3,5-diiodobenzoyl}benzofuran-2-yl)acetate]
amount of solubilized budiodarone in the presence of DMA, DMSO, EtOH, or NMP [1]: not significantly different from the amount solubilized in water alone | maximum calculated budiodarone concentration ([2]; 1/1 mixture): 1,136 mg/ml | calculated maximum budiodarone concentration ([2]; 3:1 molar ratio of benzyl alcohol/budiodarone): 890 mg/mL | maximum calculated budiodarone concentration ([2]; 5/1 ratio): 737 mg/mL | remaining concentration of budiodarone ([3]; 0.9% saline solution): < 1 mg/mL | remaining concentration of budiodarone ([3]; Acetate buffer pH5.2 (15 mM)): < 1 mg/mL | remaining concentration of budiodarone ([3]; D5W): 26.6 mg/mL | remaining concentration of budiodarone ([3]; Phosphate buffer saline pH 7.4 (15 mM)): < 1 mg/mL | remaining concentration of budiodarone ([3]; Tris.HCl buffer pH7.5 (15 mM)): < 1 mg/mL | PR interval, reduction from baseline ([4]; 200 mg bid): 16.6+23.9% | PR interval, reduction from baseline ([4]; 400 mg bid): 11.4+22.6% | PR interval, reduction from baseline ([4]; 600 mg bid): 27.0+32.1% | PR interval, reduction from baseline ([4]; 800 mg bid): 35.1 ± 30.9% | proarrhythmia, clinical hypothyroidism, or hyperthyroidism ([4]; 200 to 800 mg bid): no cases | serious AEs ([4]; 200 to 800 mg bid): no serious AEs related to study drug | tolerability ([4]; 200 to 800 mg bid): generally well tolerated | changes in HR, QRS, QT, or QTc ([4]; between baseline and dosing or washout): no significant changes | thyroid-stimulating hormone ([4]; three patients, outside the normal range): dose-responsive increases | PR interval, reduction from baseline ([4]; washout): 30.7 ± 24.3% | decrease in AFB ([5]; 200 mg BID, mITT population, not statistically significant): 10% | median percent reduction from baseline in AT/AF burden ([5]; 400 mg BID, Treatment Months 1-3, ITT population): 54% | median percent reduction from baseline in AT/AF burden ([5]; 400 mg BID, Treatment Months 1-3, mITT population): 54% | median percent reduction in AT/AF burden ([5]; 600 mg BID, Treatment Month 3, ITT population, listed as ATI-2042): 80% and 83% | median percent reduction in AT/AF burden ([5]; 600 mg BID, Treatment Month 3, mITT population): 83% | median percent reduction from baseline in AT/AF burden ([5]; 600 mg BID, Treatment Months 1-3, ITT population): 74% | median percent change from baseline in duration of AT/AF episodes [5, 7]: −51.3% | median percent change from baseline in the number of AT/AF episodes [5, 7]: −52.9% | median percent increase in the duration of NSR [5, 7]: 208.8% | median percent reduction from baseline in AT/AF burden ([5]; 600 mg BID, Treatment Months 1-3, mITT population): 75% | median percent change from baseline in duration of AT/AF episodes [5, 8]: −51.3% | median percent change from baseline in the number of AT/AF episodes [5, 8]: −62.1% | median percent increase in the duration of NSR [5, 8]: 241.8% | decrease in number of AT/AF episodes (median percent change from baseline, FIG. 12) ([5]; 600 mg BID, all three treatment months): more than 60% | decrease in duration of episodes (FIG. 12) ([5]; 600 mg BID, treatment month 1): more than 50% | decrease in duration of episodes (FIG. 12) ([5]; 600 mg BID, treatment month 2): more than 70% | decrease in duration of episodes (FIG. 12) ([5]; 600 mg BID, treatment month 3): ~70% | mean episode duration (FIG. 13) ([5]; 600 mg, down from nearly 24): less than 1 hour | median AF episode duration ([5]; 600 mg, month 3): 0 | reduction of number and duration of AF episodes below baseline (FIG. 12) ([5]; 600 mg): about 70% | patients a lot or completely satisfied with the test medication (Patient GCI Scale) ([5]; ITT population, dose group not stated): 60.0% | patients reporting a lot of improvement or complete relief (Patient GCI Scale) ([5]; dose group not stated): 46.7% | AFB after washout ([5]; each of the three dose groups, one-month washout period): returned to essentially the baseline values | Mean trough level ([6]; 200 mg bid oral): 2.4 ± 0.9 ng/mL | Mean trough level ([6]; 400 mg bid oral): 5.2 ± 1.7 ng/mL | Mean trough level ([6]; 600 mg bid oral): 13.1 ± 5.6 ng/mL | Mean trough level ([6]; 800 mg bid oral): 19.8 ± 17.9 ng/mL | trough level ([6]; washout): 0.3+0.4 ng/mL
